Measured values reported in article PMC10182956 (Archives of Toxicology, 2023).
Entries after “also recorded” stand apart in the source; their conditions may differ. Where two headings read alike, the source gives them in different places.

Key:
[1] = test system: HepaRG cells; assay: Cell viability assessment (WST-1 assay); assay type: cell-based, human; conditions: 95% CI in brackets
Description: Undifferentiated HepaRG cells were purchased from Biopredic international (Saint Grégoire, France). HepaRG cells have unlimited growth capacity and phenotypic stability, stable enzymatic activities over 4 weeks of cultivation, and similar metabolic function to primary human hepatocytes, and also avoid limitations of primary cells such as donor variability and phenotypic instability (Aninat et al. [2006]; Guillouzo et al. [2007]; Lambert et al. [2009]; Lübberstedt et al. [2011]; Andersson et al. [2012]). The line contains two cell types, hepatocyte-like and cholangiocyte-like cells (Parent et al. [2004]), which allows for elucidation of cell-specific toxicity (Jossé et al. [2008]). Cells were seeded at a density of approximately 27′000 cells/cm^2 into a 150 × 25 mm petri dish and were cultured for 2 weeks in William’s E medium (cat. nr.: 32,551,020, ThermoFisher Scientific, Massachusetts, USA) supplemented with 2 mM glutamine, 10% (v/v) fetal bovine serum (FBS) good forte (cat. nr.: P40-47,500, PAN-Biotech, Aidenbach, Germany), 100 U/ml penicillin and 100 µg/ml streptomycin (cat. nr.: 15,140,122, ThermoFisher Scientific, Massachusetts, USA), 5 µg/ml Gibco recombinant AOF insulin (cat. nr.: A11382II, ThermoFisher Scientific, Massachusetts, USA) and 50 µM hydrocortisone hemisuccinate (cat. nr.: H4881, Sigma-Aldrich, St. Louis, USA) at 37 °C and 5% CO2. Differentiation was induced by culturing the cells for another 2 weeks in the above mentioned medium supplemented with 1.7% DMSO. After 4 weeks in culture, differentiated HepaRG cells were seeded at a high density of approximately 227′000 cells/cm^2 (72,000 cells/well with 100 µl per well) into black 96-well plates with a clear bottom (cat.nr.: 3603, Corning, New York, USA) and maintained for 10 days. After 10 days, cells were first adapted to treatment medium (culture medium containing 0.5% DMSO and 2% FBS) for 48 h and then used for cell viability and high-content imaging analysis.
Cell viability was analyzed using the WST-1 assay which is based on the measurement of mitochondrial dehydrogenase activity (cat. nr: ab155902, Abcam, Cambridge, UK). HepaRG cells were exposed to chemicals at defined concentrations for 24 h. Triton X-100 (0.01%) was a positive control. One hour before the end of incubation period, 10 µl of WST-1 reagent was added to each well, quickly mixed by shaking the plate, and returned to the cell culture incubator (37 °C, 5% CO2). After 1 h, absorbance was measured (450 nm, reference wavelength 620 nm) using a plate reader (Infinite M200 Pro, Tecan group, Männerdorf, Switzerland). Absorbance was then subtracted from the reference wavelength, corrected for background by subtracting values measured without cells, and then normalized to the solvent control, which was set to 100%. Dose–response data were fitted using drc package (Version 3.0.1) (Ritz et al. [2015]) in R 3.6.1. Data were from at least 3 independent experiments with 6 technical replicates per condition.

[2] = for OED (mg/kg BW/day): IVIVE derived median with 95% CI, from BMC of positive imaging endpoint, oral, daily dosing, Table 1; for OED: IVIVE derived median over all positive imaging endpoints, human simulation, Table 2
[3] = atrazine: increase relative liver weight, ref Aguilar et al. [2009], ATSDR [2003], Food and Authority [2009a], Food and Authority [2009b], cited from earlier work; for NOAEL from literature (mg/kg BW/day): first value of cell NOAEL/LOAEL; for LOAEL from literature (mg/kg BW/day): second value of cell NOAEL/LOAEL
[4] = test system: HepaRG cells; assay: High-content imaging assay: lipid accumulation (Bodipy lipid droplets); assay type: cell-based; conditions: for Lipid accumulation response (in words): population level, threshold ± 2 standard deviations of the response at the two lowest concentrations; for EC (BMC, 1 SD from control): read-out: LA: Benchmark concentration (µM) per imaging endpoint calculated with BMDS software
[5] = test system: HepaRG cells; assay: cells; conditions: Homo sapiens, 24 h, read-out: MMP: Benchmark concentration (µM) per imaging endpoint calculated with BMDS software
[6] = test system: HepaRG cells; conditions: HepaRG 24 h; for Mitochondrial membrane potential response (in words): population level, threshold ± 2 standard deviations of the response at the two lowest concentrations
[7] = test system: HepaRG cells; conditions: for OS: Benchmark concentration (µM) per imaging endpoint calculated with BMDS software: oxidative stress, Supplementary table 3; for Oxidative stress response (in words): population level, threshold ± 2 standard deviations of the response at the two lowest concentrations
[8] = test system: HepaRG cells
[9] = cited from earlier work; for In vivo Css: human, published, ref Birkett and Miners 1991, Graham et al. 2011, Freedman and Somberg 1991, Vasudev et al. 2001
[10] = test system: HepaRG cells; assay: cells; conditions: Homo sapiens, 24 h, read-out: NM: Benchmark concentration (µM) per imaging endpoint calculated with BMDS software
[11] = Homo sapiens, WST-1, 24 h exposure, food-related chemicals and pesticides, read-out: EC50 (95% CI) in µM from cell viability assay
[12] = Homo sapiens, lipid accumulation, HepaRG 24 h, BMR one standard deviation from control mean, Table 1
[13] = Homo sapiens, 24 h exposure, reference chemicals, read-out: EC50 µM (95% CI) from cell viability (WST-1)

CC1=CC[C@@H](C(C)(C)O)CC1 [Alpha-terpineol]
EC50 [1, 11]: 2560 µM

CCNc1nc(Cl)nc(NC(C)C)n1 [Atrazine]
OED (mg/kg BW/day) [2]: 0.5 (95% CI 0.2–1.7) mg/kg BW/day
NOAEL from literature (mg/kg BW/day) [3]: 5 mg/kg BW/day
Lipid accumulation response (in words) ([4]; HepaRG 24 h): induced significant lipid accumulation
EC (BMC, 1 SD from control) [4, 12]: 19 µM

CC(C)(c1ccc(O)cc1)c1ccc(O)cc1 [Bisphenol A]
Lipid accumulation response (in words) ([4]; HepaRG 24 h): induced significant lipid accumulation
EC50 [1, 11]: 237 µM

CNC(=O)Oc1cccc2c1OC(C)(C)C2 [Carbofuran]
EC (BMC, 1 SD from control) [5]: 4980 µM
NOAEL from literature (mg/kg BW/day) [3]: 0.03–0.1 mg/kg BW/day
LOAEL from literature (mg/kg BW/day) [3]: 0.1–0.3 mg/kg BW/day
Lipid accumulation response (in words) ([4]; HepaRG 24 h): did not stimulate lipid accumulation
Mitochondrial membrane potential response (in words) [6]: dose-dependent increase in MMP exceeding the threshold

CCCCN(CCCC)SN(C)C(=O)Oc1cccc2c1OC(C)(C)C2 [Carbosulfan]
OED (mg/kg BW/day) [2]: 10.4 (95% CI 7–19.3) mg/kg BW/day
OED compared with reported NOAEL, LOAEL concentrations or the exposure estimate (in words) ([2]; human): overlapped
NOAEL from literature (mg/kg BW/day) [3]: 0.5–1.2 mg/kg BW/day
LOAEL from literature (mg/kg BW/day) [3]: 5–62 mg/kg BW/day
EC (BMC, 1 SD from control) [4, 12]: 77 µM

C[C@H](CCC(=O)O)[C@H]1CC[C@H]2[C@@H]3CC[C@@H]4C[C@H](O)CC[C@]4(C)[C@H]3C[C@H](O)[C@]12C [Deoxycholic acid]
EC50 [1, 11]: 246 µM

N#CC(C#N)=NNc1ccc(OC(F)(F)F)cc1 [FCCP, carbonylcyanide-p-trifluoromethoxyphenylhydrazone]
Concentration at which decrease of mitochondrial membrane potential exceeded the threshold [6]: 2.5 µM

N#Cc1nn(-c2c(Cl)cc(C(F)(F)F)cc2Cl)c(N)c1[S+]([O-])C(F)(F)F (centres unmarked) [Fipronil]
EC50 [1, 11]: 21 µM

O=C(CO)[C@@H](O)[C@H](O)[C@H](O)CO [Fructose]
Lipid accumulation response (in words) ([4]; HepaRG 24 h): did not stimulate lipid accumulation
Mitochondrial membrane potential response (in words) [6]: dose-dependent increase in MMP exceeding the threshold
EC50 [1, 11]: 6.6 µM

Cc1cccc(C)c1N(Cn1cccn1)C(=O)CCl [Metazachlor]
Lipid accumulation response (in words) ([4]; HepaRG 24 h): induced significant lipid accumulation
EC50 [1, 11]: 183 µM

O=[As][O-].[Na+] [Sodium arsenite]
Concentration at which increase of oxidative stress exceeded the threshold [7]: 25 µM
Concentration at which increase of number of apoptotic cells (nuclear morphology) exceeded the threshold [8]: 25 µM

O=S(=O)(c1ccccc1)N(CC(F)(F)F)c1ccc(C(O)(C(F)(F)F)C(F)(F)F)cc1 [T0901317]
Concentration at which increase of oxidative stress exceeded the threshold ([7]; HepaRG 24 h): 40 µM
Lipid accumulation response (in words) ([4]; HepaRG 24 h): dose-dependently increased and exceeded the threshold
Mitochondrial membrane potential response (in words) [6]: decrease in MMP below the threshold
EC50 ([1]; 24 h exposure, reference chemicals, read-out: EC50 µM (95% CI) from cell viability (WST-1)): 42.9 µM
Concentration at which increase of number of apoptotic cells (nuclear morphology) exceeded the threshold ([8]; HepaRG 24 h): 40 µM

O=C([O-])C1=NN(c2ccc(S(=O)(=O)[O-])cc2)C(=O)C1N=Nc1ccc(S(=O)(=O)[O-])cc1.[Na+].[Na+].[Na+] (centres unmarked) [Tartrazine]
Lipid accumulation response (in words) ([4]; HepaRG 24 h): induced significant lipid accumulation

O=c1[nH]c(=O)c2[nH]c(=O)[nH]c2[nH]1 [Uric acid]
OED (mg/kg BW/day) [2]: 87.3 (95% CI 67.3–150.6) mg/kg BW/day
In vivo blood plasma conc. ([9]; ref Aguilar et al. [2009], D’Apolito et al. [2012], Li et al. [2009]): 217 to 402 µM
Lipid accumulation response (in words) ([4]; HepaRG 24 h): induced significant lipid accumulation
EC (BMC, 1 SD from control) [4, 12]: 591 µM

C=CC1(C)OC(=O)N(c2cc(Cl)cc(Cl)c2)C1=O (centres unmarked) [Vinclozolin]
Lipid accumulation response (in words) ([4]; HepaRG 24 h): induced significant lipid accumulation

CCCCc1oc2ccccc2c1C(=O)c1cc(I)c(OCCN(CC)CC)c(I)c1 [amiodarone]
OED [2]: 15.8 mg/kg/day
EC (BMC, 1 SD from control) [5]: 13.8 µM
In vivo Css [9]: 5.4 to 6.0 µM
Concentration at which increase of oxidative stress exceeded the threshold ([7]; HepaRG 24 h): 25 µM
OS: Benchmark concentration (µM) per imaging endpoint calculated with BMDS software ([7]; HepaRG 24 h): 5.35 µM
EC (BMC, 1 SD from control) ([4]; 24 h): 8.5 µM
Lipid accumulation response (in words) ([4]; HepaRG 24 h): increased in a dose-dependent manner
Concentration at which decrease of mitochondrial membrane potential exceeded the threshold [6]: 25 µM
EC (BMC) [10]: 14.9 µM

Cn1c(=O)c2c(ncn2C)n(C)c1=O [caffeine]
Lipid accumulation response (in words) ([4]; HepaRG 24 h): decrease of lipid accumulation that exceeded the threshold
Concentration at which decrease of lipid accumulation exceeded the threshold ([4]; HepaRG 24 h, only at the highest concentration): 5000 µM
EC50 [1, 13]: 6530 µM

CCOC(=O)[C@@]1(CCCCCCOc2ccc(Cl)cc2)CO1 [etomoxir]
Oxidative stress response (in words) ([7]; HepaRG 24 h): neither induced lipid accumulation, had any consistent impact on oxidative stress
Lipid accumulation response (in words) ([4]; HepaRG 24 h): neither induced lipid accumulation; also recorded: did not give rise to lipid accumulation
Concentration at which increase of MMP (hyperpolarization) was observed / exceeded the threshold [6]: 36 µM
Mitochondrial membrane potential response (in words) [6]: increased MMP
EC50 [1, 13]: 144 µM

C=C(C)[C@H]1Cc2c(ccc3c2O[C@@H]2COc4cc(OC)c(OC)cc4[C@@H]2C3=O)O1 [rotenone]
OED [2]: 0.3 mg/kg/day
Lipid accumulation response (in words) ([4]; HepaRG 24 h): increased in a dose-dependent manner
Concentration at which decrease of mitochondrial membrane potential exceeded the threshold [6]: 2.5 µM
EC50 [1, 13]: 18.9 µM

CCCC(CCC)C(=O)O [valproic acid]
OED [2]: 92.7 mg/kg/day
EC (BMC, 1 SD from control) [5]: 1310 µM
In vivo Css [9]: 346.7 to 693.4 µM
Oxidative stress response (in words) ([7]; HepaRG 24 h): no changes were observed
OS: Benchmark concentration (µM) per imaging endpoint calculated with BMDS software ([7]; HepaRG 24 h): 1379.8 µM
Lipid accumulation response (in words) ([4]; HepaRG 24 h): accumulated in a dose-dependent manner above the threshold
EC (BMC, 1 SD from control) ([4]; Homo sapiens, lipid accumulation, HepaRG 24 h, Supplementary table 3): 570 µM
Mitochondrial membrane potential response (in words) [6]: did not affect MMP
EC (BMC) [10]: 612 µM
